In ChEMBL document CHEMBL1124295, “Synthesis and oral antiallergic activity of carboxylic acids derived from imidazo[2,1-c][1,4]benzoxazines, imidazo[1,2-a]quinolines, imidazo[1,2-a]quinoxalines, imidazo[1,2-a]quinoxalinones, pyrrolo[1,2-a]quinoxalinones, pyrrolo[2,3-a]quinoxalinones, and imidazo[2,1-b]benzothiazoles” (1988) one finds ED50 and inhibition in vivo data, which are given here for 33 compounds.

The structures appear in SMILES notation. Calls of active or inactive are those of the source. No cut-off for these calls is given here.

In test [1] the test system is Rattus norvegicus. In words: Inhibition of the IgE-mediated passive cutaneous anaphylaxis (PCA) reaction in rat after oral administration; Inactive at 1 and 10 mg/kg. The test is classed as functional, organism-based. The arrangement: dose 10 mg/kg.
Test [2] concerns Rattus norvegicus. The test can be described thus: Inhibition of the IgE-mediated passive cutaneous anaphylaxis (PCA) reaction in rat after intravenous administration; Range 1.14-3.89. The test is classed as functional.
Test [3] concerns Rattus norvegicus. In words: Inhibition of the IgE-mediated passive cutaneous anaphylaxis (PCA) reaction in rat after oral administration; Inactive at 10 mg/kg. The test is classed as functional, organism-based. The arrangement: dose 10 mg/kg.
Test [4] concerns Rattus norvegicus. The test can be described thus: Inhibition of the IgE-mediated passive cutaneous anaphylaxis (PCA) reaction in rat after intravenous administration; NA means inactive at 1 and 10 mg/Kg. In kind it is functional, organism-based.
For test [5], the system named is Rattus norvegicus. In words: Inhibition of the IgE-mediated passive cutaneous anaphylaxis (PCA) reaction in rat after oral administration; Range 4.65-18.7. In kind it is functional.
Test [6] has as its system Rattus norvegicus. In words: Inhibition of the IgE-mediated passive cutaneous anaphylaxis (PCA) reaction in rat after oral administration; Range 0.4-2.34. The test is classed as functional.
Test [7] concerns Rattus norvegicus. The test can be described thus: Inhibition of the IgE-mediated passive cutaneous anaphylaxis (PCA) reaction in rat after intravenous administration; Range 0.023-0.11. The test is classed as functional.
Test [8] concerns Rattus norvegicus. The test can be described thus: Inhibition of the IgE-mediated passive cutaneous anaphylaxis (PCA) reaction in rat after oral administration; Inactive(50% inhibition at 10 mg/kg). In kind it is functional.
Test [9] concerns Rattus norvegicus. The test can be described thus: Inhibition of the IgE-mediated passive cutaneous anaphylaxis (PCA) reaction in rat after intravenous administration; Range 2.91-4.95. The test is classed as functional.
For test [10], the system named is Rattus norvegicus. In words: Inhibition of the IgE-mediated passive cutaneous anaphylaxis (PCA) reaction in rat after oral administration; Range 0.025-0.282. In kind it is functional.
For test [11], the system named is Rattus norvegicus. The test can be described thus: Inhibition of the IgE-mediated passive cutaneous anaphylaxis (PCA) reaction in rat after intravenous administration; Range 0.005-0.033. The test is classed as functional.
In test [12] the test system is Rattus norvegicus. In words: Inhibition of the IgE-mediated passive cutaneous anaphylaxis (PCA) reaction in rat after intravenous administration; Inactive at 1 and 10 mg/kg. The arrangement: dose 10 mg/kg. The test is classed as functional, organism-based.
Test [13] relates to Rattus norvegicus. The test can be described thus: Inhibition of the IgE-mediated passive cutaneous anaphylaxis (PCA) reaction in rat after intravenous administration; Range 0.021-0.03. The test is classed as functional.
For test [14], the system named is Rattus norvegicus. The test can be described thus: Inhibition of the IgE-mediated passive cutaneous anaphylaxis (PCA) reaction in rat after intravenous administration; Range 2.74-6.94. In kind it is functional.
Test [15] deals with Rattus norvegicus. The test can be described thus: Inhibition of the IgE-mediated passive cutaneous anaphylaxis (PCA) reaction in rat after oral administration; NA means inactive at 1 and 10 mg/Kg. In kind it is functional, organism-based.
For test [16], the system named is Rattus norvegicus. The test can be described thus: Inhibition of the IgE-mediated passive cutaneous anaphylaxis (PCA) reaction in rat after intravenous administration; Range 0.058-0.15. The test is classed as functional.
For test [17], the system named is Rattus norvegicus. In words: Inhibition of the IgE-mediated passive cutaneous anaphylaxis (PCA) reaction in rat after intravenous administration; Range 0.04-0.154. The test is classed as functional.
In test [18] the test system is Rattus norvegicus. The test can be described thus: Inhibition of the IgE-mediated passive cutaneous anaphylaxis (PCA) reaction in rat after intravenous administration; Range 0.05-0.11. In kind it is functional.
Test [19] relates to Rattus norvegicus. The test can be described thus: Inhibition of the IgE-mediated passive cutaneous anaphylaxis (PCA) reaction in rat after intravenous administration; Range 0.02-0.38. The test is classed as functional.
The test system of test [20] is Rattus norvegicus. The test can be described thus: Inhibition of the IgE-mediated passive cutaneous anaphylaxis (PCA) reaction in rat after intravenous administration; Inactive. The test is classed as functional, organism-based.
Test [21] relates to Rattus norvegicus. The test can be described thus: Inhibition of the IgE-mediated passive cutaneous anaphylaxis (PCA) reaction in rat after intravenous administration; Range 0.18-0.41. In kind it is functional.

Turning to `Cc1c(C(=O)O)nc2cc(Cl)c3ccccc3n12`, in the test on Rattus norvegicus [1], the ED50 (in general, the dose that gives a 50% effect, or the effect in half of the subjects) is “inactive”. In turn, `Cc1c(C(=O)O)nc2ccc3ccc(Cl)cc3n12` displayed an ED50 in the test on Rattus norvegicus [2] of 1.99 mg/kg. `COc1ccc2ccc3nc(C(N)=O)cn3c2c1`: the ED50 result with Rattus norvegicus [1] is “inactive”. Consider `O=C(O)c1cn2c(n1)c(O)nc1cc(Cl)c(Cl)cc12`, for which the ED50 entry with Rattus norvegicus [3] is “inactive”. Turning to `c1ccc2c(c1)OCc1nc(CN3CCCCC3)cn1-2`, the ED50 entry in the test with Rattus norvegicus [4] is “inactive”. Still for that read-out and setting: the result for `CCOC(=O)c1c(C(=O)OC)nc2n1-c1ccccc1OC2` reads “inactive”. With `CCOC(=O)c1cn2c(cc(Cl)c3ccc(OC)cc32)n1`, in the test on Rattus norvegicus [5], the ED50 amounted to 8 mg/kg. Regarding `Cl.Cl.NCc1cn2c(ccc3ccccc32)n1`, in the test on Rattus norvegicus [6], the 50% effect level (ED50) was put at a dose of 0.976 mg/kg. For the compound `CSc1cc2nc(C(=O)O)cn2c2ccccc12`, in the test on Rattus norvegicus [7], the ED50 came out at 0.046 mg/kg.

Regarding `COc1ccc2c(OC(C)C)cc3nc(C(=O)O)cn3c2c1`, the inhibition in vivo (in general, the share of the control response that was lost under treatment) at 10 mg/kg in the test with Rattus norvegicus [8] is 50%.

`O=C(O)c1cn2c(ccc3c(Cl)cccc32)n1` yielded an ED50 with Rattus norvegicus [9] of 3.74 mg/kg. Turning to `c1ccc2c(c1)ncc1nc(-c3nn[nH]n3)cn12`, the 50% effective dose (ED50) in the test with Rattus norvegicus [10] was found to be 0.089 mg/kg; in the test on Rattus norvegicus [11], 0.012 mg/kg. Consider `CCOC(=O)c1cn2ccccc2n1`, for which the ED50 result in the test with Rattus norvegicus [12] is “inactive”.

For the compound `CS(=O)(=O)c1ccc2ccc3nc(C(=O)O)cn3c2c1`, the ED50 in the test with Rattus norvegicus [13] turned out to be 0.028 mg/kg. In addition, testing at 10 mg/kg in the test with Rattus norvegicus [8] gave an inhibition in vivo of 50%. `O=C(O)c1nc2ccc3ccccc3n2c1Br` had an ED50 in the test on Rattus norvegicus [14] of 4.19 mg/kg.

Turning to `O=C(O)c1cnc2n1-c1ccccc1OC2`, the ED50 result with Rattus norvegicus [4] was “inactive”. Same read-out and setting: the value for `O=C(Cc1cn2c(n1)COc1ccccc1-2)Nc1nn[nH]n1` was “inactive”. Turning to `COc1ccc2c(OC)cc3nc(C(=O)O)cn3c2c1`, the ED50 entry with Rattus norvegicus [1] was “inactive”. For the compound `CCOC(=O)c1cn2c(cnc3cc(Cl)c(Cl)cc32)n1`, the ED50 entry with Rattus norvegicus [15] is “inactive”. With `O=C(O)c1cc2c(ccc3ccccc32)s1`, the ED50 result in the test with Rattus norvegicus [12] was “inactive”. `O=C(O)c1cn2c(cc(-c3ccccc3)c3ccccc32)n1`: the ED50 entry in the test on Rattus norvegicus [1] is “inactive”. Take `O=C(O)c1cn2c(n1)c(-c1ccccc1)cc1ccccc12`: the ED50 result in the test with Rattus norvegicus [12] is “inactive”. Compound `C[S+](=N)([O-])c1ccc2ccc3nc(C(=O)O)cn3c2c1` (stereo not given) came in with an ED50 with Rattus norvegicus [16] of 0.095 mg/kg. Turning to `O=C(O)c1nc2n(c1CO)-c1ccccc1OC2`, the ED50 entry in the test on Rattus norvegicus [15] is “inactive”. As to `COC(=O)c1nnn2c1c(=O)oc1ccccc12`, in the test with Rattus norvegicus [8], 10 mg/kg produced 50% inhibition in vivo. `O=C(O)c1cn2c(ccc3ccc(C(F)(F)F)cc32)n1` returned an ED50 in the test with Rattus norvegicus [17] of 0.07 mg/kg. As to `O=C(O)c1cn2ccc3ccccc3c2n1`, the ED50 result in the test with Rattus norvegicus [4] is “inactive”.

`CCn1c(=O)c2nc(CO)cn2c2ccccc21`: the ED50 in the test with Rattus norvegicus [18] turned out to be 0.071 mg/kg. In the case of `O=C(O)c1nc(Cc2ccccc2)n2c1c(O)nc1ccccc12`, in the test on Rattus norvegicus [1], the ED50 result was “inactive”.

As to `OCc1cn2c(cc(Cl)c3ccc(Cl)cc32)n1`, in the test on Rattus norvegicus [19], the ED50 came out at 0.16 mg/kg.

With `CCn1c(=O)c2c(C(=O)OC)c(C(=O)O)cn2c2ccccc21`, the ED50 result with Rattus norvegicus [20] is “inactive”. Consider `C[S+]([O-])c1cc2nc(C(=O)O)cn2c2ccccc12` (stereo not given), for which, in the test on Rattus norvegicus [21], the ED50 worked out at 0.29 mg/kg. For the compound `CCOC(=O)c1cn2c(n1)c(=O)n(Cc1ccccc1)c1ccccc12`, the ED50 entry in the test with Rattus norvegicus [3] is “inactive”.
